Test results from US20030219764A1, “Biological discovery using gene regulatory networks generated from multiple-disruption expression libraries” (priority 2001, published 2003).

Assays:
CIK1 = assay: Boolean network analysis of joint drug response and gene disruption expression matrices (virtual gene); assay type: cell-based, Saccharomyces cerevisiae
Text: In addition to the Boolean methods for gene disruption experiments reported elsewhere^(11), we created a gene expression matrix E from a set of the drug treatment experiments combined with disruptant expression data. In the case of drug generated perturbation, we created a “virtual” gene to represent the drug affect analogous to a gene disruption. We then were able to use standard disruption matrix algorithms designed for disruption based data.
In YPD, 314 genes were defined as “transcription factors”, and 98 of these have previously been studied for control mechanism. The expression profile data of 552 genes including the genes that are controlled by these 98 “transcription factors” were selected from 5871 profiles. Thus we constructed the gene regulatory network from the expression profile data set based on the values of these 552 genes in 120 gene disruption experiments and 20 drug treatment experiments.
However, the use of gene regulatory network models, combined with the drug perturbation data allows for a hierarchical gene regulatory view of the drug's interaction with genes in the transcriptome. To generate this gene network drug perturbation data, we first created a full genome expression library of 542 single-gene disruption mutants. The 120 array data selected from the library was logically joined with the array matrices generated from the Griseofulvin experiments. […]

[1] = tested on: mitotic spindle structure in fungi; conditions: cited from earlier work
[2] = tested on: mitotic spindle structure in yeast; assay: Pathological and microscopic examination of Griseofulvin treated yeast versus CIK1 disrupted yeast; assay type: cell-based
Text: CIK1 codes for a protein described in the yeast proteome database (YPD) as a coiled-coil protein of the spindle pole body involved in spindle formation and the congression (nuclear migration) step of karyogamy^(13). Since the action of Griseofulvin is known to affect mitotic spindle formation, which is in agreement with the function of CIK1^(14), we performed a pathological examination of a yeast strain with a disrupted CIK1 gene and yeast affected by Griseofulvin.

yeast strain BY4741 = assay: Drug response full-genome cDNA microarray gene expression experiments; assay type: cell-based, Saccharomyces cerevisiae; conditions: among 552 genes which differed in expression between drug treated and normal yeast; dosages of 10, 50 and 100 mg in 10 ml of DMF; 0, 15, 30, 45 and 60 minutes
Protocol: The yeast strain used in this study is BY4741. To monitor the gene expression profile, cells were pre-grown at 30° C. in YPD (2% polypeptone, 1% yeast extract and 2% glucose) to mid-exponential phase and were exposed with Griseofulvin by adding it to the medium to the concentrations at 0, 10, 25, 50, and 100 mg/ml. The exposed cells were harvested at 0, 15, 30, 45 and 60 min after addition by Griseofulvin and used for RNA extraction. Total RNAs were extracted by the hot-phenol method.
We measured the quantities of 5871 mRNA species from 20 drug treated strains by cDNA microarray assay. A difference in fluorescent strength between Cy3, Cy5 causes bias of the expression quantity ratio. We normalized the expression quantity ratios of each expression profile. […] The logarithm value of the ratio was used to indicate the standard expression level, therefore we found the logarithm value of ratio and calculated the average and standard deviation of these log values (see table1). The Standard Deviation (SD) of expression levels of all spotted genes from the UME6 (YDR207C) disruptant expression array for which UME6 is defined as a “Global Regulator” in YPD^(33) disruptant was 0.4931, therefore we recognized that there are an unacceptable number of errors in array data whose overall SD was larger than 0.5 and eliminated such experiments from analysis. […]

COC1=CC(=O)C[C@@H](C)[C@]12Oc1c(Cl)c(OC)cc(OC)c1C2=O [Griseofulvin]
suppression of CIK1 expression (CIK1; among the 8 first-effect genes, across the experiments): strongest suppression effects
genes consistently and significantly suppressed as first effects (CIK1; at each time and drug concentration): 8 genes
effect on mitotic spindle structure [1]: disrupts mitotic spindle structure in fungi to lead to metaphase arrest
mitotic spindle structure compared with CIK1 deleted yeast ([2]; microscopic examination): very similar changes of the spindle body and surrounding organizational structures
lethality to yeast ([2]; normal physiological dosage): neither the treatment with Griseofulvin at normal physiological dosage nor the disruption of CIK1 are lethal
genes downregulated by over a 2 sigma threshold (yeast strain BY4741): 183 genes
